These results are taken from ChEMBL document CHEMBL1126210, “Conformationally restricted peptide isosteres. 2.1 Synthesis and in vitro potency of dipeptide renin inhibitors employing a 2-alkylsulfonyl-3-phenylcyclopropane carboxamide as a P3 amino acid replacement” (Bioorg Med Chem Lett, 1992).

The term IC50 denotes the midpoint of a concentration-inhibition curve. Low values mean inhibition by little substance, high ones a need for much substance.

Experiment [1] has as its target T1, Renin (Homo sapiens, UniProt P00797).
T1 sequence (P00797 whole entry): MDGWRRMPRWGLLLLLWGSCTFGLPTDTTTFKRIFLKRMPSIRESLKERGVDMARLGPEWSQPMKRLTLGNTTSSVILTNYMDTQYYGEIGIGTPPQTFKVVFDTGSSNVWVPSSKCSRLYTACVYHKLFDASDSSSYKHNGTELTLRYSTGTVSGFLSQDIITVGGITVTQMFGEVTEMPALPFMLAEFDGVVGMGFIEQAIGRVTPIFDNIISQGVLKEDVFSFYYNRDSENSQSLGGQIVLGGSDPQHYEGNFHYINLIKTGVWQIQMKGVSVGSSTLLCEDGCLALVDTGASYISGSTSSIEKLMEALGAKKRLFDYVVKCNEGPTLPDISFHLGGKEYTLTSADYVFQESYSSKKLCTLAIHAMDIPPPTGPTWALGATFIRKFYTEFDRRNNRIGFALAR
Kind of experiment: In vitro inhibition of human plasma renin at PH 7.4.

In experiment [2] the target is T1, Renin. The experiment in a line: In vitro inhibition of purified human renin at PH 6.0.

Consider `CC(C)C[C@H](NC(=O)[C@@H]1[C@@H](c2ccccc2)[C@H]1S(=O)(=O)C(C)C)C(=O)N[C@@H](CC1CCCCC1)[C@@H](O)[C@@H](O)CC(C)C`, for which the results for the half-maximal inhibitory concentration (IC50) at Renin [1] and against Renin [2] were 14 nM and 0.59 nM, respectively.
On to `CCCC[C@H](NC(=O)[C@H]1[C@H](c2ccccc2)[C@@H]1S(=O)(=O)C(C)C)C(=O)N[C@@H](CC1CCCCC1)[C@@H](O)[C@@H](O)CC(C)C`, for which the figures for the IC50 on Renin [1] and against Renin [2] were 160 nM and 1.9 nM, respectively.
`CC(C)C[C@H](O)[C@H](O)[C@H](CC1CCCCC1)NC(=O)[C@H](Cc1cscn1)NC(=O)[C@@H]1[C@@H](c2ccccc2)[C@H]1S(=O)(=O)c1ccccc1`: the IC50 at Renin [1] is 29 nM; on Renin [2] it was 1.2 nM.
As for `CC(C)C[C@H](O)[C@H](O)[C@H](CC1CCCCC1)NC(=O)[C@H](Cc1cscn1)NC(=O)[C@@H]1[C@@H](c2ccccc2)[C@H]1S(=O)(=O)C(C)C`, the results for the concentration for half-maximal inhibition (IC50) against Renin [1] and at Renin [2] were 7.9 nM and 0.38 nM, respectively.
For `CO[C@@H](CC(C)C)[C@H](O)[C@H](CC1CCCCC1)NC(=O)[C@H](Cc1cscn1)NC(=O)C(Cc1ccccc1)CS(=O)(=O)c1ccccc1` (stereo partly drawn), in that order: 18 nM and 0.77 nM.
With `CC(C)C[C@H](O)[C@H](O)[C@H](CC1CCCCC1)NC(=O)[C@H](Cc1cscn1)NC(=O)[C@H](Cc1ccccc1)CS(=O)(=O)C(C)(C)C`, the IC50 at Renin [1] amounted to 0.87 nM.
For `C=CS(=O)(=O)[C@@H]1[C@@H](C(=O)N[C@@H](Cc2cscn2)C(=O)N[C@@H](CC2CCCCC2)[C@@H](O)[C@@H](O)CC(C)C)[C@@H]1c1ccccc1`, the IC50 on Renin [1] turned out to be 27 nM; at Renin [2] it was 7.2 nM.
In turn, `CC(C)C[C@H](O)[C@H](O)[C@H](CC1CCCCC1)NC(=O)[C@H](Cc1cscn1)NC(=O)[C@H](Cc1ccccc1)CS(=O)(=O)N1CCOCC1` gave an IC50 against Renin [1] of 1.4 nM.
Take `COCOCCS(=O)(=O)[C@H]1[C@H](C(=O)N[C@@H](Cc2cscn2)C(=O)N[C@@H](CC2CCCCC2)[C@@H](O)[C@@H](O)CC(C)C)[C@H]1c1ccccc1`: the results for the IC50 at Renin [1] and on Renin [2] were 16 nM and 0.48 nM, respectively.
Turning to `CC(C)C[C@H](O)[C@H](O)[C@H](CC1CCCCC1)NC(=O)[C@H](Cc1cscn1)NC(=O)[C@H]1[C@H](c2ccccc2)[C@@H]1S(=O)(=O)C(C)C`, the values for the half-inhibitory concentration (IC50) on Renin [1] and at Renin [2] were 85 nM and 7 nM, respectively.
For `CC(C)C[C@H](NC(=O)[C@H]1[C@H](c2ccccc2)[C@@H]1S(=O)(=O)C(C)C)C(=O)N[C@@H](CC1CCCCC1)[C@@H](O)[C@@H](O)CC(C)C`, the IC50 against Renin [1] was found to be 370 nM; against Renin [2], 4.4 nM.
For `CC(C)C[C@H](O)[C@H](O)[C@H](CC1CCCCC1)NC(=O)[C@H](Cc1cscn1)NC(=O)[C@H]1[C@H](C2CCCCC2)[C@@H]1S(=O)(=O)C(C)C`, the IC50 at Renin [2] is 14 nM.
`COCOCCS(=O)(=O)[C@@H]1[C@@H](C(=O)N[C@@H](Cc2cscn2)C(=O)N[C@@H](CC2CCCCC2)[C@@H](O)[C@@H](O)CC(C)C)[C@@H]1c1ccccc1`: the IC50 on Renin [1] came to 33 nM; on Renin [2], 1 nM.
On Renin [2], `CC(C)C[C@H](O)[C@H](O)[C@H](CC1CCCCC1)NC(=O)[C@H](Cc1cscn1)NC(=O)[C@H]1[C@H](c2ccccc2)[C@@H]1S(C)(=O)=O` came in with an IC50 of 23 nM.
In the case of `CC(C)C[C@H](O)[C@H](O)[C@H](CC1CCCCC1)NC(=O)[C@H](Cc1cscn1)NC(=O)[C@H]1[C@H](CC(=O)N2CCOCC2)[C@@H]1c1ccccc1`, the IC50 amounted to 20 nM against Renin [1] and 0.7 nM against Renin [2].
For `CC(C)C[C@H](O)[C@H](O)[C@H](CC1CCCCC1)NC(=O)[C@H](Cn1ccnc1)NC(=O)[C@H]1[C@H](c2ccccc2)[C@@H]1S(=O)(=O)C(C)C`, the IC50 at Renin [1] came to 15 nM; against Renin [2], 2.5 nM.
For `CC(C)C[C@H](O)[C@H](O)[C@H](CC1CCCCC1)NC(=O)[C@H](Cc1cscn1)NC(=O)[C@@H]1[C@@H](C2CCCCC2)[C@H]1S(=O)(=O)C(C)C`, the concentration for half-maximal inhibition (IC50) was 15 nM on Renin [1] and 0.79 nM on Renin [2].
As to `C=CS(=O)(=O)[C@H]1[C@H](C(=O)N[C@@H](Cc2cscn2)C(=O)N[C@@H](CC2CCCCC2)[C@@H](O)[C@@H](O)CC(C)C)[C@H]1c1ccccc1`, the IC50 at Renin [1] was found to be 17 nM; against Renin [2], 0.63 nM.
`CC(C)C[C@H](O)[C@H](O)[C@H](CC1CCCCC1)NC(=O)[C@H](Cc1cscn1)NC(=O)[C@@H]1[C@@H](c2ccccc2)[C@H]1S(C)(=O)=O`: the IC50 against Renin [1] came out at 23 nM; on Renin [2], 0.63 nM.
For `CCCC[C@H](NC(=O)[C@@H]1[C@@H](c2ccccc2)[C@H]1S(=O)(=O)C(C)C)C(=O)N[C@@H](CC1CCCCC1)[C@@H](O)[C@@H](O)CC(C)C`, in that order: 13 nM and 0.37 nM.
On to `CC(C)C[C@H](O)[C@H](O)[C@H](CC1CCCCC1)NC(=O)[C@H](Cn1ccnc1)NC(=O)[C@@H]1[C@@H](c2ccccc2)[C@H]1S(=O)(=O)C(C)C`, for which the results for the IC50 on Renin [1] and against Renin [2] were 5.8 nM and 1.4 nM, respectively.
